The values below come from publication PMC12366332 (Applied and Environmental Microbiology, 2025).

Read-outs that look alike come from different tables or passages of the source. Ends that are not written are not given here. Peptide text beside a SMILES is read from it. * marks the point of attachment. Hexanoyl = CCCCCC(=O)*

The subject of series [1] is tobacco leaves. The settings on record: 150 µM; after 48 h.
Series [2] has as its system E. coli 0111:B4 LPS. The class given is biochemical, Escherichia coli.
Series [3] relates to horse erythrocytes. The note with it: red cells of horse, 50 µM.
The subject of series [4] is X. fastidiosa subsp. fastidiosa IVIA 5387.2. The note with it: for EC50: 3 h.

For “NIKISGKWKAQKRFLK-NH2 [BPI(84-99), NIKISGKWKAQKRFLK-NH2, reference compound]”, the “Phytotoxicity: diameter of the lesion” value in series [1] is 1 mm. Moreover, in series [2], the “LPS neutralization Ratio (treatment/NTC)” value is 0,29. Moreover, in series [3], the “Hemolytic activity (%)” value is recorded as 7%. Further, in series [4] (50 µM), the “Bactericidal activity Level” value is “Low (key: Very High: very high bactericidal activity (>2.5 log); High: high bactericidal activity (between 2.0 and 2.5 log); Moderate: a moderate activity (between 1.5 and 2.0 log); Low: low active (<1.5 log))”; the “Bactericidal activity Reduction in viability (Log N0/N)” value is 0,84 Log N0/N.

In general, EC50 refers to the concentration giving half of the maximal effect. On to `CCCC(=O)NCCCC[C@H](NC(=O)[C@H](CCCCN)NC(=O)[C@@H](Cc1ccccc1)NC(=O)[C@H](CC(C)C)NC(=O)[C@H](CCCCN)NC(=O)[C@H](CCCCN)NC(C)=O)C(=O)N[C@H](C(=O)N[C@@H](CC(C)C)C(=O)N[C@@H](CCCCN)C(=O)N[C@@H](Cc1ccc(O)cc1)C(=O)N[C@@H](CC(C)C)C(N)=O)[C@@H](C)CC` [BP473, Ac-KKLfKK(COC3H7)ILKYL-NH2], for which the “Phytotoxicity: diameter of the lesion” value in series [1] was 4 mm. In series [3], the “Hemolytic activity (%)” value was found to be 7%. Moreover, the “Bactericidal activity Reduction in viability (Log N0/N)” value in series [4] (3.1 µM) is on record as 0,64 Log N0/N. The “Bactericidal activity Level” value in series [4] (50 µM) is “Very High (key: Very High: very high bactericidal activity (>2.5 log); High: high bactericidal activity (between 2.0 and 2.5 log); Moderate: a moderate activity (between 1.5 and 2.0 log); Low: low active (<1.5 log))”. The compound further registered an EC50 in series [4] of 4.75 µM.

In the case of `CCCCCC(=O)NCCCC[C@H](NC(=O)[C@H](CCCCN)NC(=O)[C@H](CC(C)C)NC(=O)[C@@H](NC(=O)[C@H](CCCCN)NC(=O)[C@H](CCCCN)NC(=O)[C@H](Cc1ccccc1)NC(=O)[C@H](CC(C)C)NC(=O)[C@H](CCCCN)NC(=O)[C@H](CCCCN)NC(C)=O)[C@@H](C)CC)C(=O)N[C@@H](CC(C)C)C(N)=O` [BP377, Ac-KKLFKKILKK(COC5H11)L-NH2] (Ac-KKLFKKILKK(Hexanoyl)L-NH2), the “Phytotoxicity: diameter of the lesion” value in series [1] is listed as 11 mm. The “Hemolytic activity (%)” value in series [3] is 71%. Also, the entries for the “Bactericidal activity Reduction in viability (Log N0/N)” value in series [4] (3.1 µM) and in series [4] (12.5 µM) were 1,34 Log N0/N and 1,88 Log N0/N, respectively. Besides, the “Bactericidal activity Level” value in series [4] (50 µM) is “Very High (key: Very High: very high bactericidal activity (>2.5 log); High: high bactericidal activity (between 2.0 and 2.5 log); Moderate: a moderate activity (between 1.5 and 2.0 log); Low: low active (<1.5 log))”. The compound also yielded an EC50 in series [4] of 3.67 µM.

On to `CCCCCCCCCCCC(=O)NCCCC[C@H](NC(=O)[C@H](CCCCN)NC(=O)[C@H](CCCCN)NC(C)=O)C(=O)N[C@H](Cc1ccccc1)C(=O)N[C@@H](CCCCN)C(=O)N[C@@H](CCCCN)C(=O)N[C@H](C(=O)N[C@@H](CC(C)C)C(=O)N[C@@H](CCCCN)C(=O)N[C@@H](Cc1ccc(O)cc1)C(=O)N[C@@H](CC(C)C)C(N)=O)[C@@H](C)CC` [BP500, Ac-KKK(COC11H23)fKKILKYL-NH2], for which the “Phytotoxicity: diameter of the lesion” value in series [1] is on record as 8 mm. Moreover, the “Hemolytic activity (%)” value in series [3] amounted to 99%. Further, in series [4] (50 µM), the “Bactericidal activity Level” value is “Low (key: Very High: very high bactericidal activity (>2.5 log); High: high bactericidal activity (between 2.0 and 2.5 log); Moderate: a moderate activity (between 1.5 and 2.0 log); Low: low active (<1.5 log))”; the “Bactericidal activity Reduction in viability (Log N0/N)” value was 1,37 Log N0/N.

For the compound `CCCC(=O)NCCCC[C@H](NC(=O)[C@@H](NC(=O)[C@H](CCCCN)NC(=O)[C@H](CCCCN)NC(=O)[C@@H](Cc1ccccc1)NC(=O)[C@H](CC(C)C)NC(=O)[C@H](CCCCN)NC(=O)[C@H](CCCCN)NC(C)=O)[C@@H](C)CC)C(=O)N[C@@H](CCCCN)C(=O)N[C@@H](Cc1ccc(O)cc1)C(=O)N[C@@H](CC(C)C)C(N)=O` [BP474, Ac-KKLfKKIK(COC3H7)KYL-NH2], the “Phytotoxicity: diameter of the lesion” value in series [1] was 2 mm. The “Hemolytic activity (%)” value in series [3] is listed as 0%. In series [4] (50 µM), the “Bactericidal activity Level” value is “Moderate (key: Very High: very high bactericidal activity (>2.5 log); High: high bactericidal activity (between 2.0 and 2.5 log); Moderate: a moderate activity (between 1.5 and 2.0 log); Low: low active (<1.5 log))”; the “Bactericidal activity Reduction in viability (Log N0/N)” value is given as 1,76 Log N0/N.
